Where two headings read alike, the source gives them in different places.
Columns and labels:
[1] = tested on: positive (hedonic) 50-kHz ultrasonic vocalizations (USVs); test: Positive Emotional Learning (PEL) test; type: in vivo; conditions: rat, PO, dose 0.1 mg/kg, one hour after administration
Procedure: Experiments were conducted as described in Burgdorf et al., “The effect of selective breeding for differential rates of 50-kHz ultrasonic vocalizations on emotional behavior in rats,” Devel. […] Rat 50-kHz ultrasonic vocalization (hedonic USVs) is a validated model for the study of positive affective state and is best elicited by rough-and-tumble play.
The PEL assay measures the acquisition of positive (hedonic) 50-kHz ultrasonic vocalizations (USVs) to a social stimulus, heterospecific rough and tumble play stimulation. Heterospecific rough-and-tumble play stimulation was administered by the experimenter's right hand. One hour after administration of test compound or vehicle negative control (0.5% sodium carboxymethyl cellulose in 0.9% sterile saline vehicle), animals received 3 min of heterospecific rough-and-tumble play that consisted of alternating 15 sec blocks of heterospecific play and 15 sec of no-stimulation. […] Frequency modulated 50-kHz USVs that occurred during each of the no-stimulation periods were quantified to measure PEL. Animals were not habituated to play stimulation before testing. Positive emotional learning was measured during the conditioned stimulus (CS) trials preceding the tickle unconditioned stimulus (UCS) trials. Animals received 15 second trials consisting of 6 CS and 6 UCS trials each (3 min total).

[2] = Microsomal stability (Human); type: in vitro ADME; conditions: human microsomes
Procedure: (§1) Microsomal stability of disclosed compounds was investigated. The following table indicates the percent of compound remaining after 60 minutes.

[3] = Microsomal stability (Rat); type: in vitro ADME; conditions: rat microsomes
Procedure: as §1

Plasma stability (Human) = type: in vitro ADME
Procedure: (§2) Plasma stability of disclosed compounds was investigated. The following table indicates the percent of compound remaining after 60 minutes.

Plasma stability (Rat) = type: in vitro ADME
Procedure: as §2

[4] = target: T1, NMDAR2A expressing HEK cell membranes (Homo sapiens, UniProt Q12879); test: NMDAR agonist assay, [3H]MK-801 binding, NMDAR2A; type: biochemical; conditions: 50 μM glutamate
T1 construct: expressed in transfected cells; host or cells: HEK cells (membrane extract)
T1 sequence (Q12879 23-1464, other chains not shown): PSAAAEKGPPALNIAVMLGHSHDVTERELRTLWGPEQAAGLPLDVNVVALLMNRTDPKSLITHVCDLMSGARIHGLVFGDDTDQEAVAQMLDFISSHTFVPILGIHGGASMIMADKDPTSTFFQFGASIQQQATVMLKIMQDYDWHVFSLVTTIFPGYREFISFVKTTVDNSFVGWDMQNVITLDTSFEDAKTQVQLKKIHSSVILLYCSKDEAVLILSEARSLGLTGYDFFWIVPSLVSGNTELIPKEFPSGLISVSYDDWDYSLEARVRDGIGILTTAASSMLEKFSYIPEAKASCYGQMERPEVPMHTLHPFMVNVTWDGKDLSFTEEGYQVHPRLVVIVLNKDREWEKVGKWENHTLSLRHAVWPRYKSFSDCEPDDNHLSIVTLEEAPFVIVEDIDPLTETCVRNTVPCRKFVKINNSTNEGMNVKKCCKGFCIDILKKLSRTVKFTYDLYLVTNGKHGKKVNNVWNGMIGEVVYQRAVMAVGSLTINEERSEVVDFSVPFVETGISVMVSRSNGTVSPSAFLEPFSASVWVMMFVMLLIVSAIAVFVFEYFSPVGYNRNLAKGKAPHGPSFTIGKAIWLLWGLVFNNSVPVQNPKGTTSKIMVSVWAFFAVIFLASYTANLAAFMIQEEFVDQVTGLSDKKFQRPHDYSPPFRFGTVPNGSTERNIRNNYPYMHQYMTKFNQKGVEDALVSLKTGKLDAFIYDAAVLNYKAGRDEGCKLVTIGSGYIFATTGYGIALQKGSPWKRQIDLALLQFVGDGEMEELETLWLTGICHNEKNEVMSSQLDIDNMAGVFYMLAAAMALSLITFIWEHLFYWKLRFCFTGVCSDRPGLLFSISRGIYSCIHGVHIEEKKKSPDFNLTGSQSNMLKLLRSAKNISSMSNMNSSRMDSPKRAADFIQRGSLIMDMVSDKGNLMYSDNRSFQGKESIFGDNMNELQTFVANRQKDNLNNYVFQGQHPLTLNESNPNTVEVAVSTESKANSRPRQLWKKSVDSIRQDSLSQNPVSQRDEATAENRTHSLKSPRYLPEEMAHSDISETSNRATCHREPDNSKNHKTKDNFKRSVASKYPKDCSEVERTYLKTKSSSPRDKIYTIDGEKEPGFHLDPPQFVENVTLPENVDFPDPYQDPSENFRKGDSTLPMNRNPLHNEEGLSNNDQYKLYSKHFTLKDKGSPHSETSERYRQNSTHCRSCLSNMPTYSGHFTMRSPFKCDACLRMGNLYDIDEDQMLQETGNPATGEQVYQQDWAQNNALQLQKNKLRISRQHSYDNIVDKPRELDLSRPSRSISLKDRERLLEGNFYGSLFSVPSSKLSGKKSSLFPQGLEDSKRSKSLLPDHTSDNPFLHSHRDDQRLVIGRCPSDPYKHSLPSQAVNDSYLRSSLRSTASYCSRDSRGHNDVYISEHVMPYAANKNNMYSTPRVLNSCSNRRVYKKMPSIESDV
Procedure: (§3) (nonequilibrium conditions).
(§4) The baseline value was determined from the best fit curve of the DPM values modeled using the GraphPad program and the log(agonist) vs. response(three parameters) algorithm was then subtracted from all points in the dataset.

[5] = target: T2, NMDAR2B expressing HEK cell membranes (Homo sapiens, UniProt Q13224); test: NMDAR agonist assay, [3H]MK-801 binding, NMDAR2B; type: biochemical; conditions: 50 μM glutamate
T2 construct: expressed in transfected cells; host or cells: HEK cells (membrane extract)
Procedure: as §3, §4

IV pharmacokinetics = type: in vivo; design: C0: unit: ng/mL; conditions: Sprague Dawley rats, 2 mg/kg, normal saline; for Vd: read-out: Vss
Procedure: Sprague Dawley rats were dosed intravenously using a normal saline formulation containing 2 mg/kg of the compounds identified in the below table. The table below summarizes the results of the IV pharmacokinetics.

[6] = Oral pharmacokinetics (plasma, brain, CSF); type: in vivo; design: Cmax: unit: ng/mL; conditions: Sprague Dawley rats, per os, 10 mg/kg; for Tmax: normal saline
Procedure: In another experiment, Sprague Dawley rats were dosed per os using a normal saline formulation containing 10 mg/kg of the compounds identified in the table below. Plasma, brain, and CSF samples were analyzed at various time points over a 24 hour period. The table below summarizes the results of the oral pharmacokinetics.

[7] = target: T3, NMDAR2A expressing HEK cell membranes (Homo sapiens, UniProt Q05586+Q12879); test: NMDAR agonist assay, [3H]MK-801 binding, NMDAR2A; type: biochemical; conditions: 50 μM glutamate; for EC50: [3H]MK-801 binding, read-out: NMDAR2A: log EC50 (converted)
T3 construct: expressed in transfected cells; host or cells: HEK cells (membrane extract)
T3 sequence (Q12879 23-1464, other chains not shown): as above
Procedure: as §3, §4

[8] = target: T4, NMDAR2B expressing HEK cell membranes (Homo sapiens, UniProt Q05586+Q13224); test: NMDAR agonist assay, [3H]MK-801 binding, NMDAR2B; type: biochemical; conditions: 50 μM glutamate; for EC50: [3H]MK-801 binding, read-out: NMDAR2B log EC50 (converted)
T4 construct: expressed in transfected cells; host or cells: HEK cells (membrane extract)
Procedure: as §3, §4

[9] = target: T5, NMDAR2C expressing HEK cell membranes (Homo sapiens, UniProt Q05586+Q14957); test: NMDAR agonist assay, [3H]MK-801 binding, NMDAR2C; type: biochemical; conditions: 50 μM glutamate; for EC50: [3H]MK-801 binding, read-out: NMDAR2C: log EC50 (converted); for Emax: relative to 1 mM glycine, read-out: NMDAR2C A: % maximal [3H]MK-801 binding relative to 1 mM glycine
T5 construct: expressed in transfected cells; host or cells: HEK cells (membrane extract)
T5 sequence (Q14957 20-1233, other chains not shown): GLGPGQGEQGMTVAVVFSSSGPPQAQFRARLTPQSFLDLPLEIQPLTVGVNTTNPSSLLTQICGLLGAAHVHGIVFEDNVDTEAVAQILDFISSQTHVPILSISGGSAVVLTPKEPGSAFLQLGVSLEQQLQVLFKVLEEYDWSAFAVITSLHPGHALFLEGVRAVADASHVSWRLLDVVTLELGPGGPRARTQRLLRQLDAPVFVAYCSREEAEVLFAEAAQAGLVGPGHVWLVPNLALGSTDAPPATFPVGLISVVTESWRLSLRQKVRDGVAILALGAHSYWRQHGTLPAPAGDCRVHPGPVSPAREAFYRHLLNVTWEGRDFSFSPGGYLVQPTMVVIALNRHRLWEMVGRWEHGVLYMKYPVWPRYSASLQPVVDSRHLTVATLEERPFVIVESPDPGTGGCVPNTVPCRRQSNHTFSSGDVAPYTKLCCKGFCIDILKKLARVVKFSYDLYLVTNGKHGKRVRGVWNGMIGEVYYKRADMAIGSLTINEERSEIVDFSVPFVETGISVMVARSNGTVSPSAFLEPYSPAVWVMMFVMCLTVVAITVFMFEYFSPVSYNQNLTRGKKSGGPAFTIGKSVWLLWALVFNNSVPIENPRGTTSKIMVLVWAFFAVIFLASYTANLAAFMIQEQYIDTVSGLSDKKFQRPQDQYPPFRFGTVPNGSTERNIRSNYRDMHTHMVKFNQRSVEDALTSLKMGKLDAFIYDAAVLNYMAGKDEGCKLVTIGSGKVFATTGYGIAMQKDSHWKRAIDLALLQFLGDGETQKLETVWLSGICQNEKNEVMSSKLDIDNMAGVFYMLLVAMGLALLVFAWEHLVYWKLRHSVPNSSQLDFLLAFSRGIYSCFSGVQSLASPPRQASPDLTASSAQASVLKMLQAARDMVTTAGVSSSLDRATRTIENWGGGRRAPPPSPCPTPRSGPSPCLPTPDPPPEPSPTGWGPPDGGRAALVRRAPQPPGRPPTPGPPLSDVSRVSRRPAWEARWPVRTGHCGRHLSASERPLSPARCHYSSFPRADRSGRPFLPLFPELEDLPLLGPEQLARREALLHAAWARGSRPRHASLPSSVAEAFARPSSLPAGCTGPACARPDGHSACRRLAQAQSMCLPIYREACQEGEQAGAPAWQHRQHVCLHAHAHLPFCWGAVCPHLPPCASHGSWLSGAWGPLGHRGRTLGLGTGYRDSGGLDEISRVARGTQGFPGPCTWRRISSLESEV
Procedure: as §3, §4

[10] = target: T6, NMDAR2D expressing HEK cell membranes (Homo sapiens, UniProt O15399+Q05586); test: NMDAR agonist assay, [3H]MK-801 binding, NMDAR2D; type: biochemical; conditions: 50 μM glutamate
T6 construct: expressed in transfected cells; host or cells: HEK cells (membrane extract)
Procedure: as §3, §4

[11] = Sprague Dawley, rat, in vivo, iv
[12] = Sprague Dawley, rat, in vivo, iv, read-out: C0
[13] = Sprague Dawley, rat, plasma, po
[14] = Sprague Dawley, rat, plasma, po, read-out: Tmax
[15] = Sprague Dawley, rat, plasma, po, plasma, read-out: Cmax

Compound	Microsomal (Human): percent of compound remaining after 60 minutes [2] [%]	Microsomal (Rat): percent of compound remaining after 60 minutes [3] [%]	Plasma (Human): percent of compound remaining after 60 minutes (Plasma stability (Human)) [%]	Plasma (Rat): percent of compound remaining after 60 minutes (Plasma stability (Rat)) [%]	NMDAR2A: % maximal [3H]MK-801 binding relative to 1 mM glycine [4]	NMDAR2B: % maximal [3H]MK-801 binding relative to 1 mM glycine [5]	CSF Cmax [6] [ng/mL]	Brain Cmax [6] [ng/mL]	Max Effect (mean number of 50 kHz USVs per 15 seconds) [1]	EC50 [7] [nM]	EC50 [8] [nM]	AUC(0-t) (IV pharmacokinetics; [11]) [ng·h/mL]	clearance (IV pharmacokinetics; [11]) [mL/min/kg]	half-life (IV pharmacokinetics; [11]) [min]	C0 (IV pharmacokinetics; [12]) [ng/mL]	Vd (IV pharmacokinetics; [11]) [L/kg]	AUC(0-t) [6, 13] [ng·h/mL]	bioavailability [6, 13] [%]	Tmax [6, 14] [min]	Cmax [6, 15] [ng/mL]	also measured
C[C@@H](O)[C@H](NC(=O)C1CCC2(CNC2=O)N1)C(N)=O (single isomer, unassigned) [AQ-2]	100	100	100	95	+ (<100%=+)	+ (<100%=+)	0	0													Max Effect (mean number of 50 kHz USVs per 15 seconds) ([1]; 0.1 mg/kg): * (*: 6-10.9); EC50 ([4]; [3H]MK-801 binding, read-out: NMDAR2A: log EC50 (converted)): < 1 nM; EC50 ([5]; [3H]MK-801 binding, read-out: NMDAR2B log EC50 (converted)): < 1 nM; AUClast (IV pharmacokinetics): 2601.7 ng·h/mL; C0 (IV pharmacokinetics): 5143.2 ng/mL; Cl (IV pharmacokinetics): 12.82 mL/min/kg; T1/2 (IV pharmacokinetics): 35.4 min; Vss (IV pharmacokinetics): 0.36 L/kg; % F [6]: 5%; AUClast [6]: 599.6 ng·h/mL; Tmax [6]: 64.8 min; Cmax ([6]; plasma): 144.2 ng/mL
CC(C)C(=O)N1C(C(=O)N[C@H](C(N)=O)[C@@H](C)O)CCC12CNC2=O (single isomer, unassigned) [AS]	84	100	100	100	+ (<100%=+)	+ (<100%=+)	0	0	** (**: 11-16.9)	< 1	< 1	2800	11.8	190	2230	0.61	367	3	49.8	75.4	
CC(C)(C)OC(=O)N1CC2(CN(OCc3ccccc3)C2=O)CC12CN(OCc1ccccc1)C2=O (single isomer, unassigned) [AW, tert-butyl 2,8-bis(benzyloxy)-1,7-dioxo-2,8,10-triazadispiro[3.1.36.24]undecane-10-carboxylate]	2	0	90	0	+ (<100%=+)	++ (>100%=++)			** (**: 11-16.9)	< 1											EC50 [9]: < 1 nM; Emax [9]: < 100%; EC50 ([10]; [3H]MK-801 binding, read-out: NMDAR2D: log EC50 (converted)): < 1 nM; Emax ([10]; relative to 1 mM glycine, read-out: NMDAR2D: % maximal [3H]MK-801 binding relative to 1 mM glycine): < 100%
CC(C)(C)OC(=O)N1C(C(N)=O)CCC12CN(OCc1ccccc1)C2=O (single isomer, unassigned) [BH, tert-butyl 2-(benzyloxy)-6-carbamoyl-1-oxo-2,5-diazaspiro[3.4]octane-5-carboxylate]	100	100	90	95	− (−=0)	+ (<100%=+)	36.66	0	** (**: 11-16.9)	> 100	< 1	656	50.5	20.4	2390	0.82	614	18	15	859	EC50 [9]: < 1 nM; Emax [9]: > 100%
CC(=O)N1C(C(=O)N[C@H](C(N)=O)[C@@H](C)O)CCC12CNC2=O (stereo partly drawn) [AO, 5-acetyl-N-((2S,3R)-1-amino-3-hydroxy-1-oxobutan-2-yl)-1-oxo-2,5-diazaspiro[3.4]octane-6-carboxamide]	100	100	100	93			17.89	0	** (**: 11-16.9)	> 100	< 1	4430	7.59	130	11900	0.22	1320	6	160	247	Emax ([7]; relative to 1 mM glycine, read-out: NMDAR2A: % maximal [3H]MK-801 binding relative to 1 mM glycine): 0%; Emax ([8]; relative to 1 mM glycine, read-out: NMDAR2B: % maximal [3H]MK-801 binding relative to 1 mM glycine): < 100%

— patent US11028095B2, “Spiro-lactam and bis-spiro-lactam NMDA receptor modulators and uses thereof” (Aptinyx Inc., priority 2016, dated 2021)
